Literature values, collected in patent US20010006649A1, “STABLE ORAL PHARMACEUTICAL DOSAGE FORMS” (priority 1997, published 2001).

Columns and labels:
[1] = omeprazole solution, pH-decomposition rate profile
[2] = enteric granule formulations, alkaline stabilizers screened

Row | pH of maximum stability [1] | stability when exposed to light | optimal pH stability [2] | Compound
1 | 11 |  |  | COc1ccc2[nH]c([S+]([O-])Cc3ncc(C)c(OC)c3C)nc2c1 (stereo not drawn) [omeprazole, 2-[2-(3,5-dimethyl-4-methoxy)-pyridylmethylsulfinyl]-(5-methoxy)-benzimidazole]
2 |  | relatively stable | 9 | Cc1c(OCC(F)(F)F)ccnc1C[S+]([O-])c1nc2ccccc2[nH]1 (stereo not drawn) [Lansoprazole, 2-[[[3-methyl-4-(2,2,2-trifluroethoxy)-2-pyridyl]methyl]sulfinyl] benzimidazole]
